Test results: patent US10357577B2, “Bacterial nitroreductase enzymes and methods relating thereto” (AUCKLAND UNISERVICES LIMITED, priority 2010, dated 2019)
Where “and” joins values, the source holds several entries; their conditions need not be identical. Identical values can stand only once. Entries after “also recorded” stand apart in the source; their conditions may differ.

Experiments:
[1] = system: nitroreductase NfsA-expressing HCT116 'activator' cells; assay: MCL (multicellular layer) bystander experiment, NfsA-dependent activation; assay type: cell-based, human; settings: for bystander property (in words): MCL of NTR-expressing and parental HCT116 cells; for estimated bystander effect efficiency (BEE) / calculated bystander effect efficiency (BEE): hyperoxic (95% O2) MCLs; for estimated bystander effect efficiency (BEE): at concentrations achievable in α-MEM+10% FBS, activator fraction differs per experiment; for calculated bystander effect efficiency (BEE): HCT116-WT targets mixed with NfsA activators (activator fraction differs per experiment)
Method: Displacement of the Target cell survival curve to the left (T to Tc) is indicative of the presence of a cytotoxic metabolite(s) able to diffusible out of the sensitive activator (A) cell population. The prodrug concentrations for 10% survival (C10) of target cells (wild-type cells) grown without activators (T), targets in co-culture (TC) and activators (nfsA-expressing cells) in co-culture (AC) were determined by interpolation. BEE-Bystander effect efficiency calculates the drugs bystander effect: ((Log C10T−Log C10TC)/(Log C10T−Log C10AC)).
The prodrug concentrations for 10% survival (C10) of target cells (wild-type cells) grown without activators (T), and targets in co-culture (TC) and activators (NTR-expressing cells) in co-culture (AC) can be determined. The bystander effect of a test prodrug is measured by the bystander effect efficiency which can be calculated using the algorithm ((Log C10T−Log C10TC)/(Log C10T−Log C10AC)).
Millicell-CM membrane inserts (Millipore) were coated in calf-skin collagen type III (Sigma-Aldrich) to facilitate cell attachment. […] After exposure, inserts were disaggregated (0.07% trypsin, 10 min, 37° C., followed by 100 μg/ml DNAase I (Sigma-Aldrich). Cells were counted, resuspended and plated in P60 dishes to determine clonogenic survival. To discriminate clonogenic activator (NTR+) from target (NTR−) colonies cells were plated in non-selective medium (total cells) and medium containing 1 μM puromycin (activator cells). Colonies were grown in a 37° C. 5% CO2 incubator for 10 days before staining with methylene blue (2 g/liter in 50% v/v aqueous ethanol). Colonies containing >50 cells were counted as clonogenic survivors. Surviving fractions for each population was calculated as the plating efficiency for drug-treated MCLs/untreated controls. The drug concentrations for 10% survival (C10) of target cells grown without activators (T), targets in co-culture (Tc) and activators in co-culture (Ac) was determined by interpolation.

[2] = system: HCT116 cells expressing E. coli NfsA; assay type: cell-based, human; settings: low cell density proliferation assay
Method: (§1) FIGS. 10 (B) and 10 (C) illustrates the results of evaluation of 2-nitroimidazole clinical imaging candidates with E. coli and non-E. coli NTRs. Stably-expressing cells were treated with varying concentration of 2-nitroimidazole prodrugs diluted in αMEM+5% FCS+P/S. Cells were exposed to prodrug for 18 hrs, washed and left to regrow for 5 days. IC50 was determined as the concentration of prodrug required to inhibit cell growth by 50% of untreated controls. IC50 values are mean for ≥2 independent experiments. WT:NTR ratio-ratio of IC50 means from WT cells versus NTR-expressing cell lines.
as §1, with “FIG. 21” for “FIGS. 10 (B) and 10 (C)”, “antiproliferative activity (IC50 value)” for “the results”, “prodrug” for “evaluation of 2-nitroimidazole clinical imaging”, “nitroreductases.” for “NTRs.”, “prodrug” for “2-nitroimidazole prodrugs”, “ratio-interexperimental ratio” for “ratio-ratio”
(§2) Isolated NTR gene sequences were subject to PCR and introduced in the bicistronic plasmid F579 via Gateway cloning (Invitrogen) as described by Prosser et al. (2010, Biochem Pharmacol, 79, 678-687). Stably transfected cell lines were created by transfection of the relevant plasmid using FuGENE 6 Transfection Reagent (Roche). Transfected cell populations were maintained by passage in puromycin
(§3) Cells were passaged in alpha-Minimal Essential Media, (αMEM; Gibco) supplemented with 5% FBS, (GIBCO NZ) without antibiotics. Cell were passaged for <3 months from frozen stocks and confirmed Mycoplasma free (PCR-ELISA; Roche Diagnostics). Cells were aliquoted into the 96-well plate (100 μL/well) and cells were left to attach (≥4 hrs). […] Plates were read on an ELx 808 Absorbance Microplate Reader (Bio-Tek Instruments). Absorbance was measured at 490 nm and 450 nm (final absorbance 490-450). […]

[3] = system: HCT116 cells expressing E. coli NfsB; assay: Monolayer antiproliferative (IC50) assay, NTR-expressing HCT116; assay type: cell-based, human; settings: low cell density proliferation assay
Method: as §1
as §1, with “FIG. 21” for “FIGS. 10 (B) and 10 (C)”, “antiproliferative activity (IC50 value)” for “the results”, “prodrug” for “evaluation of 2-nitroimidazole clinical imaging”, “nitroreductases.” for “NTRs.”, “prodrug” for “2-nitroimidazole prodrugs”, “ratio-interexperimental ratio” for “ratio-ratio”
as §2, §3

[4] = system: HCT116-WT (parental) 'target' cells; assay: MCL (multicellular layer) bystander experiment, target cells; assay type: cell-based, human
Excerpt: FIG. 22 illustrates NfsA-dependent activation of TH-302 in an MCL bystander experiment. It includes a representative bystander efficiency graph. TH-302 dose-response curves for hyperoxic (95% O2) multicellular layers (MCLs) of HCT116-WT (parental) ‘target’ cells in the absence (T) and presence (Tc) of nitroreductase NfsA-expressing HCT116 ‘activator’ cells (A). MCLs are composed of ‘targets only’ (T) or as intimate mixtures of 29% (±4%) NfsA activators (A) and 71% targets (Tc). Displacement of the Target cell survival curve to the left (T to Tc) is indicative of the presence of a cytotoxic metabolite(s) able to diffusible out of the sensitive activator (A) cell population. The prodrug concentrations for 10% survival (C10) of target cells (wild-type cells) grown without activators (T), targets in co-culture (TC) and activators (nfsA-expressing cells) in co-culture (AC) were determined by interpolation. BEE-Bystander effect efficiency calculates the drugs bystander effect: ((Log C10T−Log C10TC)/(Log C10T−Log C10AC)). The calculated bystander effect efficiency is 43.4%.
Bystander effects can be quantified according to methods described in Wilson et al, 2002, Cancer Res. 62:1425-1432, by employing a 3D multicellular layer (MCL) composed of a minority (1%) of NTR-expressing ‘activator’ cells, mixed with a majority (99%) of parental (wild-type) ‘target’ cells. The prodrug concentrations for 10% survival (C10) of target cells (wild-type cells) grown without activators (T), and targets in co-culture (TC) and activators (NTR-expressing cells) in co-culture (AC) can be determined. The bystander effect of a test prodrug is measured by the bystander effect efficiency which can be calculated using the algorithm ((Log C10T−Log C10TC)/(Log C10T−Log C10AC)). […]
Millicell-CM membrane inserts (Millipore) were coated in calf-skin collagen type III (Sigma-Aldrich) to facilitate cell attachment. […] Surviving fractions for each population was calculated as the plating efficiency for drug-treated MCLs/untreated controls. […]

[5] = target: T1, NfsB(Ec) (Escherichia coli, UniProt P38489); assay: Growth Inhibition assay, NTR over-expressing E. coli SOS-R2; assay type: cell-based; settings: elevated substrate concentrations (400 μM F-MISO, 600 μM HX4)
T1 construct: expressed in transfected cells; host or cells: E. coli SOS-R2 (endogenous nfsA, nfsB, nemA and azoR deleted) carrying pUCX::ntr
Method: FIG. 34 (B) illustrates the metabolism of F-MISO by members of the 58 NTR over-expression library as measured by Growth Inhibition assay as described for FIG. 34A except that cells were challenged with 400 μM F-MISO.
FIG. 35 (B) illustrates the metabolism of HX4 by members of the 58 NTR over-expression library as measured by Growth Inhibition assay as described for FIG. 35A except that cells were challenged with 600 μM HX4.
Individual microtiter plate wells containing 200 μl LB+amp, 0.4% glucose were inoculated with SOS-R2 pUCX::ntr strains and incubated overnight at 30° C., 200 rpm. Ten μl of the overnight culture were used to inoculate 190 μl of fresh assay media (LB+amp, 0.05 mM IPTG, 0.2% glucose) and incubated at 30° C., 200 rpm for 3 h. The 200 μl culture was split into 100 μl duplicates which were supplemented with either 100 μl challenge media (assay media+250 uM EF5+2% DMSO) or 100 μl control media (assay media+2% DMSO). Initial OD600 readings were recorded and then plates incubated at 30° C., 200 rpm for 4 h after which final OD600 readings were taken and used to calculate strains respective growth inhibition in EF5 presence.

T1 sequence (P38489 whole entry): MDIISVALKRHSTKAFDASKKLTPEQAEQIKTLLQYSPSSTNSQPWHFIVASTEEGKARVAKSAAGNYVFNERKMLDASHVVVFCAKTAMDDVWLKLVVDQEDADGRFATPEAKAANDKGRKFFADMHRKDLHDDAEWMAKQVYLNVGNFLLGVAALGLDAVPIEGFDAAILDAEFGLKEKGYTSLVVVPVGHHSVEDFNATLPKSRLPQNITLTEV

Structure (SMILES) | bystander property (in words) [1] | estimated bystander effect efficiency (BEE) [1] [%] | further results
CCS(=O)(=O)CCn1c([N+](=O)[O-])cnc1C [Tinidazole, 1-(2-(ethylsulfonyl)ethyl)-2-methyl-5-nitro-1H-imidazole] | lack any measurable bystander effect; also recorded: zero bystander property | 0 | 
CN(CCO)C(=O)c1cc([N+](=O)[O-])cc([N+](=O)[O-])c1N(CCBr)CCBr [SN31609, 2-(bis(2-bromoethyl)amino)-N-(2-hydroxyethyl)-N-methyl-3,5-dinitrobenzamide] |  |  | prodrug activation (in words) [2]: significant activation; prodrug activation (in words) [3]: significant activation
Cn1c(COP(=O)(NCCBr)NCCBr)cnc1[N+](=O)[O-] [TH-302, N,N′-bis(2-bromoethyl)-(1-methyl-2-nitro-1H-imidazol-5-yl)methyl phosphorodiamidic acid ester] |  |  | calculated bystander effect efficiency (BEE) [1]: 43.4% and 43%; sterilisation of the nfsA-expressing cells in the MCL model ([1]; incubation with 90 nM TH-302): Greater than 90%; fold less sensitive, NfsA negative cells versus nfsA-expressing cells ([4]; MCL model): 210 fold; C10 (concentration for 10% survival) of NfsA negative cells in co-culture ([4]; MCL, targets in co-culture with activators): 1.86 µM; C10 (concentration for 10% survival) of NfsA negative cells ([4]; MCL, targets without activators): 18.9 µM
CS(=O)(=O)OCCN(CCBr)c1c(C(=O)NCCO)cc([N+](=O)[O-])cc1[N+](=O)[O-] [PR-104A, 2-((2-bromoethyl)(2-((2-hydroxyethyl)carbamoyl)-4,6-dinitrophenyl)amino)ethyl methanesulfonate] | marked bystander property | 89 | prodrug activation (in words) [2]: significant activation; prodrug activation (in words) [3]: significant activation
O=[N+]([O-])c1nccn1Cc1cn(C(CO)CF)nn1 (stereo not shown) [HX4, 3-fluoro-2-(4-((2-nitro-1H-imidazol-1-yl)methyl)-1H-1,2,3-triazol-1-yl)propan-1-ol] |  |  | activity with 2-NI substrate (in words) [5]: substantial activity
COCC(O)Cn1ccnc1[N+](=O)[O-] (stereo not shown) [Misonidazole, 1-methoxy-3-(2-nitro-1H-imidazol-1-yl)propan-2-ol] | zero bystander property | 0 | 
O=[N+]([O-])c1nccn1CC(O)CN1CC1 (stereo not shown) [RSU-1069, 1-(aziridin-1-yl)-3-(2-nitro-1H-imidazol-1-yl)propan-2-ol] | lack any measurable bystander effect |  | 
O=C(Cn1ccnc1[N+](=O)[O-])NCCO [Etanidazole, N-(2-hydroxyethyl)-2-(2-nitro-1H-imidazol-1-yl)acetamide] | zero bystander property | 0 | 
O=C1CN(/N=C/c2ccc([N+](=O)[O-])o2)C(=O)N1 [Nitrofurantoin, (E)-1-(((5-nitrofuran-2-yl)methylene)amino)imidazolidine-2,4-dione] | zero bystander property |  | calculated bystander effect efficiency (BEE) [1]: 0%
O=[N+]([O-])c1nccn1CC(O)CNCCBr (stereo not shown) [RB6145] | lack any measurable bystander effect |  | 
